Source: ChEMBL document CHEMBL1909046, “DrugMatrix in vitro pharmacology data”
*1 amine or outer side, *2 acyl side, *3 side chain or, on linkers, in order; H or OH if unused. Where a SMILES comes first, the peptide text is derived from it. Bridges are numbered along the chain shown (N, C = ends). Roman numbers before positions name the chains, in order. [ ]: non-standard residue; d: D form. Actinocin(1to9) = Cc1c2oc3c(C)ccc(C(=O)[*:2])c3nc-2c(C(=O)[*:1])c(N)c1=O; NMeV = CN[C@H](C(=O)O)C(C)C; Sar = CNCC(=O)O

How the values were obtained:
[1] = DRUGMATRIX: GABAA, Muscimol, Central radioligand binding (ligand: [3H] Muscimol); format: cell membranes, Rattus norvegicus, Wistar, Brain, Membrane; settings: Not Active = under 50% inhibition at 10 µM
[2] = target: Mitogen-activated protein kinase 14 (Homo sapiens, UniProt Q16539); design: species or system Escherichia coli;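 note: inhibition of p38alpha enzyme activity in a biochemical kinase assay, with myelin basic protein serving as substrate; in other assays of this panel Not Active means under 50% inhibition at 10 µM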
[3] = DRUGMATRIX: Potassium Channel [KATP] radioligand binding (ligand: [3H] Glyburide); format: cell membranes, Membrane; settings: hit-t15; Not Active = under 50% inhibition at 10 µM
[4] = target: Melanocortin receptor 4 (Homo sapiens, UniProt P32245); format: cell membranes, HEK293, Membrane; settings: hek293; note: in other assays of this panel Not Active means under 50% inhibition at 10 µM
[5] = target: T1, D(4) dopamine receptor (Homo sapiens, UniProt P21917); assay: DRUGMATRIX: Dopamine D4.2 radioligand binding (ligand: [3H] Spiperone); format: cell membranes, CHO-K1, Membrane; settings: cho-k1; Not Active = under 50% inhibition at 10 µM
T1 sequence (P21917 whole entry): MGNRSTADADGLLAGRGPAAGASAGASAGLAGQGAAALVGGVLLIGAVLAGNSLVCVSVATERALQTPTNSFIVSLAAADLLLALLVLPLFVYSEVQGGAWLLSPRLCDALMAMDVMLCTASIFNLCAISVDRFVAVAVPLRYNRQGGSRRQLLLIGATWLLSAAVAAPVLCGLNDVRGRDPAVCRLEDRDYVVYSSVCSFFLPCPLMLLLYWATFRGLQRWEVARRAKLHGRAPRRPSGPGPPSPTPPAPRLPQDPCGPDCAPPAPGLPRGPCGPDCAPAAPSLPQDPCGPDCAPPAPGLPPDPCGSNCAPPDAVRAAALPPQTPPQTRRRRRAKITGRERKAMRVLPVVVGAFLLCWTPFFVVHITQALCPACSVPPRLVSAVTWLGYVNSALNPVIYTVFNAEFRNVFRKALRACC

[6] = target: T2, Neuropeptide Y receptor type 2 (Homo sapiens, UniProt P49146); format: cell membranes, Membrane; settings: kan-ts; note: in other assays of this panel Not Active means under 50% inhibition at 10 µM
T2 sequence (P49146 whole entry): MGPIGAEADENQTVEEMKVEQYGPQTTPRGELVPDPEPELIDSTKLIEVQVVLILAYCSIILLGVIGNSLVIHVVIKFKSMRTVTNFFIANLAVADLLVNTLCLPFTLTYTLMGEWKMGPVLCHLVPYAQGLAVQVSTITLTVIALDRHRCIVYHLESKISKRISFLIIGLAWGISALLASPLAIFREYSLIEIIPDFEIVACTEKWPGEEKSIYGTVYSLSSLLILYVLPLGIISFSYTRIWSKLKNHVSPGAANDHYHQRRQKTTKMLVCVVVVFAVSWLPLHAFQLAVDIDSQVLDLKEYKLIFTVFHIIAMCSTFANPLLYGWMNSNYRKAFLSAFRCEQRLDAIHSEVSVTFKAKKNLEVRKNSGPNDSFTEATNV

[7] = target: T3, Cysteinyl leukotriene receptor 1 (Homo sapiens, UniProt Q9Y271); format: cell membranes, CHO-K1, Membrane; settings: cho-k1; note: in other assays of this panel Not Active means under 50% inhibition at 10 µM
T3 sequence (Q9Y271 whole entry): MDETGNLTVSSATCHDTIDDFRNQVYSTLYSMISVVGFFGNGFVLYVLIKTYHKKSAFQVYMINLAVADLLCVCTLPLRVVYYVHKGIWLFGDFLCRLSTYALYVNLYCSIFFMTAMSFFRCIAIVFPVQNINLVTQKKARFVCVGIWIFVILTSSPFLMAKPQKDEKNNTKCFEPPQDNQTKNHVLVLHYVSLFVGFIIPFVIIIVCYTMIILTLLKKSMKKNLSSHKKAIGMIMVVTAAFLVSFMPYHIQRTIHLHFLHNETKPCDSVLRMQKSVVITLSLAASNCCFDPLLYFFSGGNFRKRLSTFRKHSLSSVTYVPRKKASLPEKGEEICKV

[8] = target: Mu-type opioid receptor (Homo sapiens, UniProt P35372); assay: DRUGMATRIX: Opiate mu (OP3, MOP) radioligand binding (ligand: [3H] Diprenorphine); format: cell membranes, CHO-K1, Membrane; settings: cho-k1; Not Active = under 50% inhibition at 10 µM
Chain of Mu-type opioid receptor (P35372 whole entry): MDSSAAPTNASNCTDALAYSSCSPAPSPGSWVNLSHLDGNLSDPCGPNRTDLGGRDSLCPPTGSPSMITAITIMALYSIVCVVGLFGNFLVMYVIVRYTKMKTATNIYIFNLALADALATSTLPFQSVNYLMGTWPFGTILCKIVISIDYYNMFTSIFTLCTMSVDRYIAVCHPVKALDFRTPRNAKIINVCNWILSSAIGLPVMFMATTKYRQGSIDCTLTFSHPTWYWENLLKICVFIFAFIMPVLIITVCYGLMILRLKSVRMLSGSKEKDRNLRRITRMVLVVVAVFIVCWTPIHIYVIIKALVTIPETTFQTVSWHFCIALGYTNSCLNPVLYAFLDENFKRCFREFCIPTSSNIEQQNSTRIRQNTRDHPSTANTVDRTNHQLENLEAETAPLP

Chain of Melanocortin receptor 4 (P32245 whole entry): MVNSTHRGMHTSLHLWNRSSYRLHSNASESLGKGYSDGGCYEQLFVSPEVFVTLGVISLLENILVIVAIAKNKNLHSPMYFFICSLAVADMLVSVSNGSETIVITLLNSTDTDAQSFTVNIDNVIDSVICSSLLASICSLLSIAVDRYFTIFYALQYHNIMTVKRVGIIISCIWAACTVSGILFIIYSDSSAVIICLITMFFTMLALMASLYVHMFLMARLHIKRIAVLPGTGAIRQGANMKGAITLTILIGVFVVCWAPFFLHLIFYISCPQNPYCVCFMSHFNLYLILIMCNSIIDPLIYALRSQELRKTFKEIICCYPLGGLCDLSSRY
Chain of Mitogen-activated protein kinase 14 (Q16539 whole entry): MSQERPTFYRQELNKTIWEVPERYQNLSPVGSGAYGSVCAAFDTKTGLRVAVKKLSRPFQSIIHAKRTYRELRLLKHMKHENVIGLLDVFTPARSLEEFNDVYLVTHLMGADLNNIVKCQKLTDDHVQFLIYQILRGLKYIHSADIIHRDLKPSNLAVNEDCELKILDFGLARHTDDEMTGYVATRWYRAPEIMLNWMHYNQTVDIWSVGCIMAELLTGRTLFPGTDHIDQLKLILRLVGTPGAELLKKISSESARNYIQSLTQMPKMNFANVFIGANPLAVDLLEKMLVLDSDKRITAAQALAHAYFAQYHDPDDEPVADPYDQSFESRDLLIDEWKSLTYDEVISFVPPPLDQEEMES

COc1cc2c3cc1Oc1cc(ccc1O)C[C@@H]1c4c(cc(OC)c(O)c4Oc4ccc(cc4)C[C@@H]3N(C)CC2)CC[N+]1(C)C.[Cl-]
Not Active: IC50 [1] | Ki [1] | IC50 [2] | IC50 [3] | Ki [3] | IC50 [4] | IC50 [5] | IC50 [6] | IC50 [7] | IC50 [8]

CCC(C)n1ncn(-c2ccc(N3CCN(c4ccc(OCC5COC(Cn6cncn6)(c6ccc(Cl)cc6Cl)O5)cc4)CC3)cc2)c1=O (stereo not given) [ITRACONAZOLE]
Not Active: IC50 [1] | Ki [1] | IC50 [2] | IC50 [3] | Ki [3] | IC50 [4] | IC50 [5] | IC50 [6] | IC50 [7] | IC50 [8]

C[C@H]1O[C@@H](O[C@H]2[C@@H](O)C[C@H](O[C@H]3[C@@H](O)C[C@H](O[C@H]4CC[C@@]5(C)[C@H](CC[C@@H]6[C@@H]5C[C@@H](O)[C@]5(C)[C@@H](C7=CC(=O)OC7)CC[C@]65O)C4)O[C@@H]3C)O[C@@H]2C)C[C@H](O)[C@@H]1O [DIGOXIN]
Not Active: IC50 [1] | Ki [1] | IC50 [2] | IC50 [3] | Ki [3] | IC50 [4] | IC50 [5] | IC50 [6] | IC50 [7] | IC50 [8]

Cc1c2oc3c(C)ccc(C(=O)N[C@@H]4C(=O)N[C@H](C(C)C)C(=O)N5CCC[C@H]5C(=O)N(C)CC(=O)N(C)[C@@H](C(C)C)C(=O)O[C@@H]4C)c3nc-2c(C(=O)N[C@@H]2C(=O)N[C@H](C(C)C)C(=O)N3CCC[C@H]3C(=O)N(C)CC(=O)N(C)[C@@H](C(C)C)C(=O)O[C@@H]2C)c(N)c1=O [DACTINOMYCIN] (I: T[dV]P[Sar][NMeV] / II: T[dV]P[Sar][NMeV]; ester I:1-I:C, II:1-II:C; linker I:N-II:N via Actinocin(1to9))
Not Active: IC50 [1] | Ki [1] | IC50 [2] | IC50 [3] | Ki [3] | IC50 [4] | IC50 [5] | IC50 [6] | IC50 [7] | IC50 [8]

C=C(C)C1(O)OC(=O)C=C1OC (stereo not given) [PENICILLIC ACID]
Not Active: IC50 [1] | Ki [1] | IC50 [2] | IC50 [3] | Ki [3] | IC50 [4] | IC50 [5] | IC50 [6] | IC50 [7] | IC50 [8]

CN(Cc1ccc(C(C)(C)C)cc1)Cc1cccc2ccccc12 [BUTENAFINE]
Not Active: IC50 [1] | Ki [1] | IC50 [2] | IC50 [3] | Ki [3] | IC50 [4] | IC50 [5] | IC50 [6] | IC50 [7] | IC50 [8]

NC(=O)N1c2ccccc2CCc2ccccc21
Not Active: IC50 [1] | Ki [1] | IC50 [2] | IC50 [3] | Ki [3] | IC50 [4] | IC50 [5] | IC50 [6] | IC50 [7] | IC50 [8]

Cc1onc(-c2ccccc2Cl)c1C(=O)N[C@@H]1C(=O)N2[C@@H]1SC(C)(C)[C@@H]2C(=O)O [CLOXACILLIN]
Not Active: IC50 [1] | Ki [1] | IC50 [2] | IC50 [3] | Ki [3] | IC50 [4] | IC50 [5] | IC50 [6] | IC50 [7] | IC50 [8]

CCn1cc(C(=O)O)c(=O)c2cc(F)c(N3CCNCC3)cc21 [NORFLOXACIN]
Not Active: IC50 [1] | Ki [1] | IC50 [2] | IC50 [3] | Ki [3] | IC50 [4] | IC50 [5] | IC50 [6] | IC50 [7] | IC50 [8]

CCC1(c2ccc(N)cc2)CCC(=O)NC1=O (stereo not given) [AMINOGLUTETHIMIDE]
Not Active: IC50 [1] | Ki [1] | IC50 [2] | IC50 [3] | Ki [3] | IC50 [4] | IC50 [5] | IC50 [6] | IC50 [7] | IC50 [8]

Cc1ccc(N(CC2=NCCN2)c2cccc(O)c2)cc1 [PHENTOLAMINE]
Not Active: IC50 [1] | Ki [1] | IC50 [2] | IC50 [3] | Ki [3] | IC50 [4] | IC50 [5] | IC50 [6] | IC50 [7] | IC50 [8]

CNNCc1ccc(C(=O)NC(C)C)cc1 [PROCARBAZINE]
Not Active: IC50 [1] | Ki [1] | IC50 [2] | IC50 [3] | Ki [3] | IC50 [4] | IC50 [5] | IC50 [6] | IC50 [7] | IC50 [8]

CN(C)c1nc(N(C)C)nc(N(C)C)n1 [ALTRETAMINE]
Not Active: IC50 [1] | Ki [1] | IC50 [2] | IC50 [3] | Ki [3] | IC50 [4] | IC50 [5] | IC50 [6] | IC50 [7] | IC50 [8]

OC(Cn1cncn1)(Cn1cncn1)c1ccc(F)cc1F [FLUCONAZOLE]
Not Active: IC50 [1] | Ki [1] | IC50 [2] | IC50 [3] | Ki [3] | IC50 [4] | IC50 [5] | IC50 [6] | IC50 [7] | IC50 [8]

C[C@]12CCC(=O)C=C1CC[C@@H]1[C@@H]2CC[C@@]2(C)[C@H]1CC[C@]2(C)O [METHYLTESTOSTERONE]
Not Active: IC50 [1] | Ki [1] | IC50 [2] | IC50 [3] | Ki [3] | IC50 [4] | IC50 [5] | IC50 [6] | IC50 [7] | IC50 [8]

O=c1oc2ccccc2c(O)c1Cc1c(O)c2ccccc2oc1=O [DICUMAROL]
Not Active: IC50 [1] | Ki [1] | IC50 [2] | IC50 [3] | Ki [3] | IC50 [4] | IC50 [5] | IC50 [6] | IC50 [7] | IC50 [8]

N=C(N)NCCN1CCCCCCC1 [GUANETHIDINE]
Not Active: IC50 [1] | Ki [1] | IC50 [2] | IC50 [3] | Ki [3] | IC50 [4] | IC50 [5] | IC50 [6] | IC50 [7] | IC50 [8]

Cc1cc(C2CCCCC2)n(O)c(=O)c1 [CICLOPIROX]
Not Active: IC50 [1] | Ki [1] | IC50 [2] | IC50 [3] | Ki [3] | IC50 [4] | IC50 [5] | IC50 [6] | IC50 [7] | IC50 [8]

CCOc1ccc(NC(C)=O)cc1 [PHENACETIN]
Not Active: IC50 [1] | Ki [1] | IC50 [2] | IC50 [3] | Ki [3] | IC50 [4] | IC50 [5] | IC50 [6] | IC50 [7] | IC50 [8]

NC1=NC(=O)C(c2ccccc2)O1 (stereo not given) [PEMOLINE]
Not Active: IC50 [1] | Ki [1] | IC50 [2] | IC50 [3] | Ki [3] | IC50 [4] | IC50 [5] | IC50 [6] | IC50 [7] | IC50 [8]
